Assay results: patent publication US20110053773A1, “METHODS OF IMPROVING NUTRITIONAL VALUE OF PLANTS” (UNIVERSITY OF TENNESSEE RESEARCH FOUNDATION, priority 2009, published 2011)

Columns and labels:
[1] = system: sweet corn (Zea mays var. rugosa) cultivar 'Incredible'; assay: Content analysis of sweet corn ears: crude protein, amino acids, detergent fiber, fatty acids, minerals (Example 1); assay type: in vivo; conditions: POST at b59 rates; every treatment incl. check also got atrazine 560 g ai/ha + COC 1% v/v; relative to treated check (atrazine), check=0
From the text: Herbicide treatments were applied in a water carrier at 23 gallons of solution per acre on a field site near Knoxville, Tenn. and Painter, Va. Treatments include the following: 1) nicosulfuron at 35 g ai/ha (Accent); 2) mesotrione at 105 g ai/ha (Callisto); 3) nicosulfuron at 35 g ai/ha+mesotrione at 105 g ai/ha (Callisto+Accent); 4) tembotrione at 92 g ai/ha+isoxadifen-ethyl at 46 g ai/ha (Laudis); 5) topramezone at 15 g ai/ha (Impact); 6) nicosulfuron at 35 g ai/ha+isoxadifen-ethyl at 9 g ai/ha (Accent Q); 7) nicosulfuron at 35 g ai/ha+isoxadifen-ethyl at 9 g ai/ha+topramezone at 15 g ai/ha (Accent Q+Impact); 8) nicosulfuron 35 g ai/ha+isoxadifen-ethyl at 9 g ai/ha+mesotrione at 105 g ai/ha (Accent Q+Callisto); 9) treated check (atrazine or Aatrex). All treatments included a PRE application of atrazine plus metolachlor in order to maintain weed free conditions. In addition, all POST treatments (including the treated check) included atrazine at 560 g ai/ha and crop oil concentrate at 1% v/v. […] Sweet corn was harvested from the center two rows of each four row plot and weighed in the husk.

[2] = system: sweet corn cultivars 'Merit', 'Temptation', 'Incredible'; assay: Kernel carotenoids of sweet corn after mesotrione and atrazine (Example 3); assay type: in vivo; parameters: Kernel carotenoids: Lutein / Kernel carotenoids: Zeaxanthin: unit not given here; conditions: mesotrione 105, atrazine 560 g ai/ha
Procedure: (§1) Studies were conducted in a field in Knoxville, Tenn. to ascertain the growth, stress tolerance and nutritional quality differences following postemergence applications of herbicides mesotrione and atrazine, alone and in mixtures together, on the young sweet corn cultivars: ‘Merit’ (yellow-kernel sensitive genotype), ‘Temptation’ (bicolor tolerant genotype), and ‘Incredible’ (yellow-kernel moderately sensitive genotype).
(§2) Herbicide treatments were applied as follows: 1) untreated control; 2) mesotrione (meso) at 105 g ai/ha EPOST; 3) mesotrione at 105+atrazine at 560 g ai/ha EPOST; 4) atrazine at 560 g ai/ha EPOST; 5) mesotrione at 105 g ai/ha LPOST; 6) mesotrione at 105+atrazine at 560 g ai/ha LPOST; and 7) atrazine at 560 g ai/ha LPOST. Visual ratings of plant growth were taken during season, and kernels for carotenoids were measured at harvest.

[3] = system: sweet corn cultivars 'Merit', 'Temptation', 'Incredible'; assay: Visual leaf tissue bleaching of sweet corn (Example 3, Table 9); assay type: in vivo; conditions: mesotrione 105, atrazine 560 g ai/ha
Procedure: as §1, §2

'Riviera' bermudagrass = assay: Visual tissue whitening of bermudagrass after mesotrione (Example 5); assay type: in vivo, Cynodon dactylon (L.) Pers.; conditions: 0.28 kg/ha postemergence
From the text: Greenhouse and laboratory studies were initiated with ‘Riviera’ bermudagrass (Cynodon dactylon (L.) Pers.) treated postemergence with mesotrione at 0.28 kg×ha^−1 and sampled for tissue pigment concentrations at 0, 3, 7, 14, 21, 28 and 35 days after treatment (DAT; Table 16). […] Due to the antioxidant activity of these carotenoid pigments, these increases should improve bermudagrass stress tolerance (Kopsell et al., 2010).

[4] = 'Incredible' moderately sensitive genotype, EPOST
[5] = 'Incredible' moderately sensitive genotype, LPOST
[6] = 'Merit' sensitive genotype, EPOST
[7] = 'Merit' sensitive genotype, LPOST

## CS(=O)(=O)c1ccc(C(=O)C2C(=O)CCCC2=O)c([N+](=O)[O-])c1 [Mesotrione*CALLISTO, mesotrione]
[1]
  Acid DF: 10 % of check
  Alanine: 4 % of check
  Amino Acid: 6 % of check
  Aspartic ac: 7 % of check
  Cysteine: 6 % of check
  Glutamic ac: 6 % of check
  Glycine: 4 % of check
  Isoleucine: 6 % of check
  Leucine: 6 % of check
  Lysine: 12 % of check
  Methionine: 2 % of check
  Neutral DF: 13 % of check
  Proline: 9 % of check
  Protein: 7 % of check
  Threonine: 16 % of check
  Valine: 7 % of check
  calcium: 0 % of check
  copper: 0 % of check
  iron: 21 % of check
  magnesium: 20 % of check
  manganese: 25 % of check
  mon fattyac: 9 % of check
  phosphorous: 12 % of check
  polyfattyac: 12 % of check
  potassium: 12 % of check
  sat fattyac: 7 % of check
  sodium: 21 % of check
  tot fattyac: 11 % of check
  zinc: 16 % of check
[2]; [4]
  Lutein % change from untreated control: −6.4%
  Zeaxanthin % change from untreated control: −7.4%
[2]; 'Incredible' moderately sensitive genotype, EPOST, untreated 0.328
  Kernel carotenoids: Lutein: 0.307
[2]; 'Incredible' moderately sensitive genotype, EPOST, untreated 0.448
  Kernel carotenoids: Zeaxanthin: 0.415
[2]; [5]
  Lutein % change from untreated control: +4.6%
  Zeaxanthin % change from untreated control: +1.3%
[2]; 'Incredible' moderately sensitive genotype, LPOST, untreated 0.328
  Kernel carotenoids: Lutein: 0.343
[2]; 'Incredible' moderately sensitive genotype, LPOST, untreated 0.448
  Kernel carotenoids: Zeaxanthin: 0.454
[2]; [6]
  Lutein % change from untreated control: +7.8%
  Zeaxanthin % change from untreated control: +12.0%
[2]; 'Merit' sensitive genotype, EPOST, untreated 0.509
  Kernel carotenoids: Zeaxanthin: 0.570
[2]; [7]
  Kernel carotenoids: Lutein: 0.577
  Lutein % change from untreated control: +8.7%
  Zeaxanthin % change from untreated control: −3.7%
[2]; 'Merit' sensitive genotype, LPOST, untreated 0.509
  Kernel carotenoids: Zeaxanthin: 0.409
[3]; ‘Incredible’, 7 DAT, EPOST
  Leaf Tissue Visual Bleaching (%): 16%
[3]; ‘Incredible’, 7 DAT, LPOST
  Leaf Tissue Visual Bleaching (%): 11%
[3]; ‘Incredible’, 14 DAT, EPOST
  Leaf Tissue Visual Bleaching (%): 9%
[3]; ‘Incredible’, 14 DAT, LPOST
  Leaf Tissue Visual Bleaching (%): 9%
[3]; ‘Incredible’, 21 DAT, EPOST
  Leaf Tissue Visual Bleaching (%): 8%
[3]; ‘Incredible’, 21 DAT, LPOST
  Leaf Tissue Visual Bleaching (%): 1%
[3]; ‘Merit’, 7 DAT, EPOST
  Leaf Tissue Visual Bleaching (%): 61%
[3]; ‘Merit’, 7 DAT, LPOST
  Leaf Tissue Visual Bleaching (%): 34%
[3]; ‘Merit’, 14 DAT, EPOST
  Leaf Tissue Visual Bleaching (%): 53%
[3]; ‘Merit’, 14 DAT, LPOST
  Leaf Tissue Visual Bleaching (%): 29%
[3]; ‘Merit’, 21 DAT, EPOST
  Leaf Tissue Visual Bleaching (%): 44%
[3]; ‘Merit’, 21 DAT, LPOST
  Leaf Tissue Visual Bleaching (%): 9%
'Riviera' bermudagrass; by 14 DAT
  visual tissue whitening, maximum: 38%
'Riviera' bermudagrass; by 21 DAT
  recovery of discolored tissue: re-greening of discolored tissue was observed
